The values below come from ChEMBL document CHEMBL1129314, “Synthesis of novel Se-substituted selenocysteine derivatives as potential kidney selective prodrugs of biologically active selenol compounds: evaluation of kinetics of beta-elimination reactions in rat renal cytosol” (J Med Chem, 1996).

Assay [1] has as its target Kynurenine--oxoglutarate transaminase 1 (Rattus norvegicus) (UniProt Q08415). The assay is described as follows: Ratio of Vmax and Km for elimination of conjugates by rat renal cytosol.
For assay [2] the target is unchanged. The assay is described as follows: Specific activity against beta-elimination reaction by rat renal cytosolic beta-lyase after incubation with 0.2 mg of protein/mL for 10 min at 37 degree C using 1 mM substrate conc.

Chain of Kynurenine--oxoglutarate transaminase 1 (Rattus norvegicus) (Q08415 whole entry, looked up): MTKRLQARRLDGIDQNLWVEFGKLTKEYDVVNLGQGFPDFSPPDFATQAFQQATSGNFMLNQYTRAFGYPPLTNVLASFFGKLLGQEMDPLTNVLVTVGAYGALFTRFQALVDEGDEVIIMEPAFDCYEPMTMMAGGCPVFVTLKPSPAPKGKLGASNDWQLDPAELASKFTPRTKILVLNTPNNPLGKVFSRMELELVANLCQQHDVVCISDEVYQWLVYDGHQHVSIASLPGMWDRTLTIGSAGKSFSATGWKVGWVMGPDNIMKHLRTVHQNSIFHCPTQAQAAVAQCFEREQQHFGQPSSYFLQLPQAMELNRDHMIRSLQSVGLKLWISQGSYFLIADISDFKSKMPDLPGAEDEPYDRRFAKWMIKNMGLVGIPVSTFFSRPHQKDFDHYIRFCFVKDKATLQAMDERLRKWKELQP

In the case of `N[C@@H](C[Se]Cc1ccccc1)C(=O)O`, the Vmax / Km (nM min-1 mg-1 mM-1) in assay [1] stood at 70. Moreover, in assay [2], the Specific activity (nM min-1 mg-1) was 9.8.

`CCSC[C@H](N)C(=O)O` yielded a Specific activity (nM min-1 mg-1) in assay [2] of 0.1.

Take `C[Se]CC(N)C(=O)O` (single isomer, unassigned): the Vmax / Km (nM min-1 mg-1 mM-1) in assay [1] was 13.2. In assay [2], this molecule registered a Specific activity (nM min-1 mg-1) of 7.1.

For `CC(C)[Se]C[C@H](N)C(=O)O`, in assay [1], the Vmax / Km (nM min-1 mg-1 mM-1) came to 66.9. Besides, the Specific activity (nM min-1 mg-1) in assay [2] was determined as 14.9.

Consider `Cc1ccc(C[Se]CC(N)C(=O)O)cc1` (single isomer, unassigned), for which the Vmax / Km (nM min-1 mg-1 mM-1) in assay [1] is 70.2. The Specific activity (nM min-1 mg-1) in assay [2] turned out to be 13.1.

The molecule `COc1ccc(CSC[C@H](N)C(=O)O)cc1` had a Specific activity (nM min-1 mg-1) in assay [2] of 0.1.

In the case of `CC[Se]C[C@H](N)C(=O)O`, the Vmax / Km (nM min-1 mg-1 mM-1) in assay [1] was determined as 21.8. Further, in assay [2], the Specific activity (nM min-1 mg-1) came to 11.

With `CCC[Se]CC(N)C(=O)O` (single isomer, unassigned), the Vmax / Km (nM min-1 mg-1 mM-1) in assay [1] stood at 25.7. This molecule also returned a Specific activity (nM min-1 mg-1) in assay [2] of 8.

In assay [2], `Cc1ccc(CSC[C@H](N)C(=O)O)cc1` displayed a Specific activity (nM min-1 mg-1) of 0.3.

In turn, `CCC[Se]C[C@H](N)C(=O)O` came in with a Specific activity (nM min-1 mg-1) in assay [2] of 3.3.

With `N[C@@H](CSCc1ccccc1)C(=O)O`, the Specific activity (nM min-1 mg-1) in assay [2] was found to be 0.2.

With `N[C@@H](C[Se]c1ccc(Cl)cc1)C(=O)O`, the Vmax / Km (nM min-1 mg-1 mM-1) in assay [1] came out at 16.7. This molecule also gave a Specific activity (nM min-1 mg-1) in assay [2] of 5.2.

On to `COc1ccc([Se]C[C@H](N)C(=O)O)cc1`, for which the Vmax / Km (nM min-1 mg-1 mM-1) in assay [1] came out at 14. The molecule also yielded a Specific activity (nM min-1 mg-1) in assay [2] of 4.3.

`Cc1ccc(C[Se]C[C@H](N)C(=O)O)cc1`: in assay [2], the Specific activity (nM min-1 mg-1) came out at 4.9.

In turn, `Cc1ccc([Se]C[C@H](N)C(=O)O)cc1` yielded a Specific activity (nM min-1 mg-1) in assay [2] of 0.1.

As to `COc1ccc(C[Se]C[C@H](N)C(=O)O)cc1`, the Vmax / Km (nM min-1 mg-1 mM-1) in assay [1] worked out at 44.9. Moreover, the Specific activity (nM min-1 mg-1) in assay [2] was found to be 10.2.

`N[C@@H](CSc1ccccc1)C(=O)O` showed a Specific activity (nM min-1 mg-1) in assay [2] of 0.2.

As for `C[Se]C[C@H](N)C(=O)O`, the Specific activity (nM min-1 mg-1) in assay [2] is 4.

With `Cc1ccc([Se]CC(N)C(=O)O)cc1` (single isomer, unassigned), the Vmax / Km (nM min-1 mg-1 mM-1) in assay [1] stood at 16.7. In assay [2], this molecule yielded a Specific activity (nM min-1 mg-1) of 3.8.

With `N[C@@H](C[Se]Cc1ccc(Cl)c(Cl)c1)C(=O)O`, the Vmax / Km (nM min-1 mg-1 mM-1) in assay [1] was found to be 49. Also, in assay [2], the Specific activity (nM min-1 mg-1) came out at 12.3.

Take `N[C@@H](C[Se]c1ccccc1)C(=O)O`: the Vmax / Km (nM min-1 mg-1 mM-1) in assay [1] amounted to 44.2. In assay [2], this molecule returned a Specific activity (nM min-1 mg-1) of 13.8.

As to `N[C@@H](C[Se]Cc1ccc(Cl)cc1)C(=O)O`, the Vmax / Km (nM min-1 mg-1 mM-1) in assay [1] was determined as 68.4. This molecule also came in with a Specific activity (nM min-1 mg-1) in assay [2] of 11.6.

As to `CCCC[Se]C[C@H](N)C(=O)O`, in assay [1], the Vmax / Km (nM min-1 mg-1 mM-1) is 1.8. The molecule further registered a Specific activity (nM min-1 mg-1) in assay [2] of 0.9.
